One experiment has as its system L-lactate déshydrogénase. In words: Initial rate of oxidation of the reduced forms with L-lactate dehydrogenase (Example 7). It is filed as biochemical. As to conditions: reduced forms after Na2S2O4 treatment; coenzyme 0,17 mM, Tris HCl 50 mM, 16 mM sodium pyruvate, 17 mU L-lactate dehydrogenase; NADH = 100. The procedure:
Ces mêmes produits, mais sous forme réduite après traitement au Na2S2O4, sont soumis à un essai de mesure de la vitesse initiale d'oxydation avec l'enzyme L-lactate déshydrogénase.
Cette mesure s'effectue sur un milieu réactionnel de 0,5 ml contenant le coenzyme 0,17 mM (exprimé comme dans l'exemple 6) le même tampon 50 mM, 16 mM en pyruvate de sodium et 17 mU de L-lactate déshydrogènase à 700 U/mg. A titre comparatif la même mesure est effectuée sur NADH et le dérivé de formule 4 réduit.

In another experiment the test system is hydrogénase. As to the kind of experiment: Initial rate of reduction with a hydrogenase (Example 6). It is filed as biochemical. As to conditions: coenzyme 0,17 mM expressed as bound NAD+, Tris HCl pH8,0 50 mM, hydrogen at saturation, 29 mU hydrogenase; NAD+ = 100. The procedure: Les produits A à E préparés selon les procédés décrits dans les exemples 1 à 5 précédents sont soumis à un essai de mesure de la vitesse initale de réduction avec une hydrogénase.
Cette mesure s'effectue sur un milieu réactionnel de 0,28 ml contenant le coenzyme 0,17 mM, exprimé en NAD^+ lié pour les dérivés du NAD^+, 50 mM en tampon pH8,0 Tris HCl, de l'hydrogène à saturation et 29 mU d'enzyme hy- drogènase à 21 U/mg.
A titre comparatif la même mesure est effectuée sur le noyau NAD^+ et sur les dérivés substitués de formules (4) et (5).

With `NCCCCCCNc1nc2c(N)ncnc2n1[C@@H]1O[C@H](COP(=O)(O)OP(=O)(O)OC[C@H]2O[C@@H](N3C=CCC(C(N)=O)=C3)[C@H](O)[C@@H]2O)[C@@H](O)[C@H]1O` [Dérivé (4) réduit], the “Taux initial d'oxydation (%)” value in the experiment with L-lactate déshydrogénase was 62,5%. Still for that read-out and setting: the figure for `NC(=O)C1=CN([C@@H]2O[C@H](COP(=O)(O)OP(=O)(O)OC[C@H]3O[C@@H](n4cnc5c(N)ncnc54)[C@H](O)[C@@H]3O)[C@@H](O)[C@H]2O)C=CC1` [NADH, nicotinamide adénine dinucléotide] is 100%. In the case of `NCCNc1ncnc2c1ncn2[C@@H]1O[C@H](COP(=O)(O)OP(=O)([O-])OC[C@H]2O[C@@H]([n+]3cccc(C(N)=O)c3)[C@H](O)[C@@H]2O)[C@@H](O)[C@H]1O` [Dérivé (5), N^6-(2-aminoéthyl)-NAD^+], the “Taux initial de réduction (%)” value in the experiment with hydrogénase is reported as 90%.

Take `NCCCCCCNc1nc2c(N)ncnc2n1[C@@H]1O[C@H](COP(=O)(O)OP(=O)([O-])OC[C@H]2O[C@@H]([n+]3cccc(C(N)=O)c3)[C@H](O)[C@@H]2O)[C@@H](O)[C@H]1O` [Dérivé (4), C^8-(6-aminohexyl)-amino-NAD^+]: the “Taux initial de réduction (%)” value in the experiment on hydrogénase turned out to be 50%.

`NC(=O)c1ccc[n+]([C@@H]2O[C@H](COP(=O)([O-])OP(=O)(O)OC[C@H]3O[C@@H](n4cnc5c(N)ncnc54)[C@H](O)[C@@H]3O)[C@@H](O)[C@H]2O)c1` [NAD^+]: the “Taux initial de réduction (%)” value with hydrogénase turned out to be 100%.

For the origin of these results see patent EP0206858A1, “Process for the synthesis of macromolecular derivatives of nicotinamide adenine” (SOCIETE NATIONALE ELF AQUITAINE, priority 1985, dated 1986).
